Source: patent US11091472B2, “PI-kinase inhibitors with anti-infective activity” (The Board of Trustees of the Leland Stanford Junior …, priority 2016, dated 2021)

Columns and labels:
Cell toxicity (CC50) = format: cell-based; conditions: human, HuH-7 cells
HCV2a = test: microbe, parasite or virus in culture; format: cell-based, HCV; conditions: Hepatitis C virus, Huh7.5, read-out: HCV2a EC50
PI3K p110g = PI3K p110g (Homo sapiens (Human), UniProt P48736); test: PI3K p110g kinase assay; format: biochemical; conditions: kinase activity
Chain of PI3K p110g (P48736 whole entry): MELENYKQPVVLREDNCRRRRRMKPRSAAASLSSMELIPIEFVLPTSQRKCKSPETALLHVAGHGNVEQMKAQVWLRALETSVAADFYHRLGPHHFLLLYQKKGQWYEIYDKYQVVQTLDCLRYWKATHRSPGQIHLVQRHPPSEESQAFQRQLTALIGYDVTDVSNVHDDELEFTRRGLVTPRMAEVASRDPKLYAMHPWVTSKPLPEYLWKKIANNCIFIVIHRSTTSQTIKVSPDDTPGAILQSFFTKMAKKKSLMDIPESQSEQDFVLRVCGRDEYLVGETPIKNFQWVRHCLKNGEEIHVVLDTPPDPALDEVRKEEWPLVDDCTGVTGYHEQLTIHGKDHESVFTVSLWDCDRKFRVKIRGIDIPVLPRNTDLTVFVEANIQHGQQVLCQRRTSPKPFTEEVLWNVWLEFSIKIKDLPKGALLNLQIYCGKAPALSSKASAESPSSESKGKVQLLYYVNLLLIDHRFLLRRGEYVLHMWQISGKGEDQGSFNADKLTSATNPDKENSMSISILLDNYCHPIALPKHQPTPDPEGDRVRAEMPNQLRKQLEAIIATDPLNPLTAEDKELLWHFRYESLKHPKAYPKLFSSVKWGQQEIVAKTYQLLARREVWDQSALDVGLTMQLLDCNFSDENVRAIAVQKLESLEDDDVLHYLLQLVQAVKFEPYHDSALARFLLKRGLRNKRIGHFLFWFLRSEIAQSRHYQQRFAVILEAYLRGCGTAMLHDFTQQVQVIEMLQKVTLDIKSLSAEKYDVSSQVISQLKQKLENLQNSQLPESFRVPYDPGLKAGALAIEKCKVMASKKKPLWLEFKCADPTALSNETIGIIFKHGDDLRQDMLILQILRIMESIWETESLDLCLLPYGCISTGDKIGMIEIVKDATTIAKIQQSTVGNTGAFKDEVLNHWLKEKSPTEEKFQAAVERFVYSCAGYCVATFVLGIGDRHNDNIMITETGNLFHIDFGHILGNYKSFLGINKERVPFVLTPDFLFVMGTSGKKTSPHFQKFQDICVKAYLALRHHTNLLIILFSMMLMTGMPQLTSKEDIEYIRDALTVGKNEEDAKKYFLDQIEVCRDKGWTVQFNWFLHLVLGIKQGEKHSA

PI4KIIIB = PI4KIIIB (Bos taurus (Bovine), UniProt O02810); test: PI4KIIIβ kinase assay (immunoprecipitated HA-tagged enzyme, [γ-32P]-ATP); format: biochemical; conditions: kinase activity
PI3KC2G = PI3KC2G (Homo sapiens (Human), UniProt O75747); test: PI3KC2G kinase assay; format: biochemical; conditions: kinase activity
Chain of PI3KC2G (O75747 whole entry): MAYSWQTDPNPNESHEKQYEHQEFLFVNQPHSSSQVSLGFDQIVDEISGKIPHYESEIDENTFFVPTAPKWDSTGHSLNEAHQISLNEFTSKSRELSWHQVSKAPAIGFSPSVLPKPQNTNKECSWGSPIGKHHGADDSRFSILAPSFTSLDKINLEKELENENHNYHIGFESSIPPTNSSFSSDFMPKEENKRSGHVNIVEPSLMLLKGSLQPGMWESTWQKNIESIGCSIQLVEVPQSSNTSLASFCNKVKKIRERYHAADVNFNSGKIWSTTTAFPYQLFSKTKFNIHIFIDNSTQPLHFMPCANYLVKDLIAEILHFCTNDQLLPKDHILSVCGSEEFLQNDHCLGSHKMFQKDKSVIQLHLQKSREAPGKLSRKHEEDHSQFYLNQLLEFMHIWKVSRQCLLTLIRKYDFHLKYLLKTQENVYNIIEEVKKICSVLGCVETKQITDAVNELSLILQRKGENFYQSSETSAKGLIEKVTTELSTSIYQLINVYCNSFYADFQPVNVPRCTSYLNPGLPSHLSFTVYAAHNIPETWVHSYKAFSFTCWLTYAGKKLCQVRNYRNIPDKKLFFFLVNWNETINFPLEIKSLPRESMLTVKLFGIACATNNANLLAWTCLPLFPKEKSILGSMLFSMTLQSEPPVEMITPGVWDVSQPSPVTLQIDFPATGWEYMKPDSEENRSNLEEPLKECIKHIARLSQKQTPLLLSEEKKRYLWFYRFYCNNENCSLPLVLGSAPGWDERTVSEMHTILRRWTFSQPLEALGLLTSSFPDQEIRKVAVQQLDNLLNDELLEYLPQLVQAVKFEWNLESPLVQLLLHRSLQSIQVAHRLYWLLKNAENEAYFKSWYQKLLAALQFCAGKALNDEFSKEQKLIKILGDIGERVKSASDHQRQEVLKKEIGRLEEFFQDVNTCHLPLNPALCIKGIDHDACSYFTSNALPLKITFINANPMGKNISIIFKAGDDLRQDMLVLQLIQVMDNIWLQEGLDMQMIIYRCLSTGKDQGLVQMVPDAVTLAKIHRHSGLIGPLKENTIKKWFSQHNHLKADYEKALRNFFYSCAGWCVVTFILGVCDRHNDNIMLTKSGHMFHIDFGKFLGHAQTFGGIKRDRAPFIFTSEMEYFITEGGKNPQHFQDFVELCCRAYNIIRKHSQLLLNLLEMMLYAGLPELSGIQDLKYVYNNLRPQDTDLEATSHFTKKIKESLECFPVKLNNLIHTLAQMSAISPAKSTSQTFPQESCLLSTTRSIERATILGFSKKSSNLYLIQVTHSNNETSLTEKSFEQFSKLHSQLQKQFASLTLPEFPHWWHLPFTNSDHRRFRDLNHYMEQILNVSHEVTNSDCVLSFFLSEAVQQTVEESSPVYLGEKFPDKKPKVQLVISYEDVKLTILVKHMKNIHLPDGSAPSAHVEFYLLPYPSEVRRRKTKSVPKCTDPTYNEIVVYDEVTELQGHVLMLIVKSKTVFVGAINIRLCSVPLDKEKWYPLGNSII
Method: PI-kinase assay: Compounds are tested in C.1.1. PI kinase assays as described by Shokat et al., “A membrane capture assay for lipid kinase activity.” Nat. Protoc.
(§1) Selected compounds of Table 1 and 2 were prepared and tested for inhibition activity in a variety of kinase assays.

PI3KC2B = PI3KC2B (Homo sapiens (Human), UniProt O00750); test: PI3KC2B kinase assay; format: biochemical; conditions: kinase activity
Method: PI-kinase assay: Compounds are tested in C.1.1. PI kinase assays as described by Shokat et al., “A membrane capture assay for lipid kinase activity.” Nat. Protoc. 2007; 2(10):2459-66.
as §1

PI3K p110a = PI3K p110a (Homo sapiens (Human), UniProt P42336); test: PI3K p110a kinase assay; format: biochemical; conditions: kinase activity
HRV = test: Rhinovirus antiviral assay; format: cell-based; conditions: Human rhinovirus sp.
Ebola = test: microbe, parasite or virus in culture; format: cell-based; conditions: Zaire ebolavirus, read-out: Ebola EC50
PI4KIIIA = PI4KIIIA (Homo sapiens (Human), UniProt P42356); test: PI4KIIIα kinase assay (immunoprecipitated HA-tagged enzyme, [γ-32P]-ATP); format: biochemical; conditions: kinase activity
Chain of PI4KIIIA (P42356 whole entry): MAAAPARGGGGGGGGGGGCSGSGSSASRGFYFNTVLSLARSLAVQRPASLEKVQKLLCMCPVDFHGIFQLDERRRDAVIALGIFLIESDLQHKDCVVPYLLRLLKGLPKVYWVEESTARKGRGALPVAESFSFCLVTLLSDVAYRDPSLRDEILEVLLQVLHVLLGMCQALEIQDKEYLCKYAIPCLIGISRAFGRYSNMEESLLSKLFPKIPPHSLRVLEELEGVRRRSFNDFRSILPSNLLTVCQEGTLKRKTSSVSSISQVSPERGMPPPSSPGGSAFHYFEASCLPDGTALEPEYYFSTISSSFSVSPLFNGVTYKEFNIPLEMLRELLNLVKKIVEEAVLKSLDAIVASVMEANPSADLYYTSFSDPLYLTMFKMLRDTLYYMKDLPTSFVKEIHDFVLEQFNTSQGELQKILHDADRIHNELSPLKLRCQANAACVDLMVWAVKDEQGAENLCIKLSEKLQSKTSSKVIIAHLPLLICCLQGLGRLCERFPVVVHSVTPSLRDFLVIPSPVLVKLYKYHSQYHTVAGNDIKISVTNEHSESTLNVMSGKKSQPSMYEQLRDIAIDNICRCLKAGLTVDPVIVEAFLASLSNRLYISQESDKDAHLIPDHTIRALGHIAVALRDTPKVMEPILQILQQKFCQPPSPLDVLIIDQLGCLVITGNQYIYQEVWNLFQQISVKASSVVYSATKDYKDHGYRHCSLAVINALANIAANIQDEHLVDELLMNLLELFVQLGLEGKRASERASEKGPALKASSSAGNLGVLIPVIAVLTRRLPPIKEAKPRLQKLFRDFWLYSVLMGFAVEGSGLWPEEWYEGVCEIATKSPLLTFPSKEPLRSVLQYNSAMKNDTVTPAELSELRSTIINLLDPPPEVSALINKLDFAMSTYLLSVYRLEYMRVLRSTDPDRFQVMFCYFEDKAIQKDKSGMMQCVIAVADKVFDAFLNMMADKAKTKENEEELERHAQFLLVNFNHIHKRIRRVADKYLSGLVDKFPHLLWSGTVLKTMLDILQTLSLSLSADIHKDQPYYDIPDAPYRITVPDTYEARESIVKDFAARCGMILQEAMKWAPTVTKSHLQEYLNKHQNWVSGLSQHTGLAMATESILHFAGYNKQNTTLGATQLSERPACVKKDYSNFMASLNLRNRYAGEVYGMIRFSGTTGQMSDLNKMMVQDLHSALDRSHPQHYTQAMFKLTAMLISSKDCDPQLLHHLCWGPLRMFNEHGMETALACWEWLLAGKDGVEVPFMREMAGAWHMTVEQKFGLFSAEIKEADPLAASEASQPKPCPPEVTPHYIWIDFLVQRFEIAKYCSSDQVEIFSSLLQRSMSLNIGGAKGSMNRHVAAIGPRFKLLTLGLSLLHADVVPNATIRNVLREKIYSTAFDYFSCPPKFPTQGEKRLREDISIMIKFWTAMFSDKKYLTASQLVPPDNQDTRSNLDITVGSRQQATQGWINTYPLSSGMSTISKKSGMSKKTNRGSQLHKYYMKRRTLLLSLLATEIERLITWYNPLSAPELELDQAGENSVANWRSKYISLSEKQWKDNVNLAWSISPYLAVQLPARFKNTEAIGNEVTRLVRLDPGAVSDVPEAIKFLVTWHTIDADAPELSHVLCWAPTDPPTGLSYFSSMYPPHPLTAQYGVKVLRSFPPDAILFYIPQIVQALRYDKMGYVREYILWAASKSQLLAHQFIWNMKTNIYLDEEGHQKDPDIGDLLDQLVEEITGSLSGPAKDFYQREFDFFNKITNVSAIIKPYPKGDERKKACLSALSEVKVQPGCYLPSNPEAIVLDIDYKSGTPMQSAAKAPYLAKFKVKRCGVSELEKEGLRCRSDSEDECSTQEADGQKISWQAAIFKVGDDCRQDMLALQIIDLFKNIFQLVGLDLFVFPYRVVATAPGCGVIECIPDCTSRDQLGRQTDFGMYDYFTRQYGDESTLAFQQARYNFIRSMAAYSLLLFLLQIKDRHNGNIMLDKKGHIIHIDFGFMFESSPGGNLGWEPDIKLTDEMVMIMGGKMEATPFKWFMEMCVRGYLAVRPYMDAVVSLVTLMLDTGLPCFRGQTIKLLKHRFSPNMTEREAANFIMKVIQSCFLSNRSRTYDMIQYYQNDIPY

Coxsackie virus B3 = Coxsackie virus B3 cell based antiviral assay; conditions: Enterovirus B
MERS coronavirus = test: microbe, parasite or virus in culture; format: cell-based; conditions: Middle East respiratory syndrome-related coronavirus, read-out: MERS coronavirus EC50 (uM)
Enterovirus 68 = Enterovirus 68 cell based antiviral assay; conditions: Enterovirus D
Enterovirus 71 = Enterovirus 71 cell based antiviral assay; conditions: Enterovirus A
Dengue virus 2 = Dengue virus 2 cell based antiviral assay
Poliovirus (WM-3) = test: microbe, parasite or virus in culture; format: cell-based; conditions: Enterovirus C, read-out: Poliovirus (WM-3) EC50 (uM)
[1] = test system: Adenovirus 5 (Adenoid 75); test: Adenovirus 5 cell based antiviral assay; conditions: Human mastadenovirus C
Influenza A virus H1N1 = Influenza A virus H1N1 cell based antiviral assay
EV71 = EV71 antiviral assay; format: cell-based; conditions: Enterovirus A, Table 5

SMILES | CC50 (Cell toxicity (CC50)) | IC50 (PI3K p110g) | IC50 (PI4KIIIB) | IC50 (PI3KC2G) | IC50 (PI3K p110a) | IC50 (PI4KIIIA) | also measured
COc1ccc(-c2sc(NC(=O)CC3CCCC3)nc2C)cc1S(=O)(=O)Nc1ccc(O)cc1 [Compound S-1] | > 10000 nM | > 10000 nM | < 100 nM | < 100 nM | > 10000 nM | – | EC50 (HCV2a): 1 to 100 nM; IC50 (PI3KC2B): > 10000 nM
COc1ccc(-c2sc(NCC3CCCCC3)nc2C)cc1S(=O)(=O)Nc1ccccc1F [Compound S-29] | > 10000 nM | – | – | – | – | – | –
COc1ccc(-c2sc(NCC3CCCCC3)nc2C)cc1S(=O)(=O)Nc1cccc(C(C)(C)C)c1 [Compound S-32] | > 10000 nM | – | – | – | – | – | EC50 (HCV2a): 1000 to 10000 nM; EC50 (HRV): < 1 nM; EC50 (Ebola): 1000 to 10000 nM
COc1ccc(NS(=O)(=O)c2cc(-c3sc(NC4CCCCC4)nc3C)ccc2OC)c(C)c1 [Compound S-66] | > 10000 nM | – | – | – | – | – | EC50 (HCV2a): 1000 to 10000 nM; EC50 (HRV): < 1 nM
COc1ccc(NS(=O)(=O)c2cc(-c3sc(NC(=O)CC4CCCCC4)nc3C)ccc2OC)c(C)c1 [Compound S-85] | > 10000 nM | – | – | – | – | – | –
COc1ccc(NS(=O)(=O)c2cc(-c3sc(NC4CCCCCC4)nc3C)ccc2OC)c(C)c1 [Compound S-89] | > 10000 nM | – | – | – | – | – | –
COc1ccc(-c2sc(NC3CCCCC3)nc2C)cc1S(=O)(=O)Nc1ccc(O)cc1C [Compound S-106] | > 10000 nM | – | – | – | – | – | –
COc1ccc(-c2sc(NCC3CCCCC3)nc2C)cc1S(=O)(=O)NC1CCCNC1 (centres unmarked) [Compound S-115] | > 10000 nM | – | – | – | – | – | EC50 (HCV2a): 100 to 1000 nM
COc1ccc(-c2sc(NCC3CCCCC3)nc2C)cc1S(=O)(=O)NCC1CCCCC1 [Compound S-128] | – | > 10000 nM | 100 to 1000 nM | > 10000 nM | – | > 10000 nM | –
COc1ccc(-c2sc(NC3CCCCC3)nc2C)cc1S(=O)(=O)NC1CCCC1 [Compound S-129] | – | > 10000 nM | 100 to 1000 nM | > 10000 nM | – | > 10000 nM | –
COc1ccc(-c2sc(NC(=O)[C@@H](C)C3CCCCC3)nc2C)cc1S(=O)(=O)Nc1ccc(O)cc1 [Compound S-138] | > 10000 nM | – | – | – | – | – | –
COc1ccc(-c2sc(N[C@H](C)CC3CCCCC3)nc2C)cc1S(=O)(=O)NC1CCNCC1 [Compound S-145] | – | > 10000 nM | < 100 nM | – | > 10000 nM | 100 to 1000 nM | –
COc1ccc(-c2sc(N[C@H](C)C3CCCCC3)nc2C)cc1S(=O)(=O)NC1CCNCC1 [Compound S-147] | – | > 10000 nM | < 100 nM | – | > 10000 nM | 100 to 1000 nM | –
COc1ccc(-c2sc(NC(=O)CCC3CCCC3)nc2C)cc1S(=O)(=O)NC1CCNCC1 [Compound S-160] | – | > 10000 nM | < 100 nM | 100 to 1000 nM | – | – | IC50 (PI3KC2B): > 10000 nM
COc1ccc(-c2sc(NC(=O)CC3CCOCC3)nc2C)cc1S(=O)(=O)Nc1cc(C)cc(O)c1 [Compound S-169] | – | > 10000 nM | < 100 nM | > 10000 nM | > 10000 nM | < 100 nM | –
COc1ccc(-c2sc(NC(=O)CC3CCOCC3)nc2C)cc1S(=O)(=O)Nc1ccc(F)cc1 [Compound S-170] | – | > 10000 nM | < 100 nM | > 10000 nM | > 10000 nM | < 100 nM | –
COc1ccc(-c2sc(N[C@H](C)C3CCCCC3)nc2C)cc1S(=O)(=O)N[C@H]1CC[C@H](O)CC1 [Compound S-193] | – | – | < 100 nM | > 10000 nM | – | – | IC50 (PI3KC2B): > 10000 nM
COc1ccc(-c2sc(NC(C)C)nc2C)cc1S(=O)(=O)N[C@H]1CC[C@H](O)CC1 [Compound S-215] | – | > 10000 nM | < 100 nM | 1000 to 10000 nM | – | 1000 to 10000 nM | IC50 (PI3KC2B): > 10000 nM
COc1ccc(-c2sc(NC(C)(C)C)nc2C)cc1S(=O)(=O)N[C@H]1CC[C@H](O)CC1 [Compound S-216] | – | > 10000 nM | < 100 nM | 1000 to 10000 nM | – | – | IC50 (PI3KC2B): > 10000 nM
COc1ccc(-c2sc(NC(=O)CC3CCOCC3)nc2C)cc1S(=O)(=O)Nc1ccccc1C [Compound S-228] | > 10000 nM | – | – | – | – | – | –
COc1ccc(-c2sc(NC(=O)CC3CCOCC3)nc2C)cc1S(=O)(=O)Nc1ccc(O)cc1C [Compound S-231] | – | > 10000 nM | < 100 nM | 100 to 1000 nM | – | – | IC50 (PI3KC2B): > 10000 nM
COc1ncc(-c2sc(NC(=O)CC3CCOCC3)nc2C)cc1S(=O)(=O)Nc1cccc(O)c1 [Compound S-259] | – | – | < 100 nM | 1000 to 10000 nM | 1000 to 10000 nM | < 100 nM | –
COc1ncc(-c2sc(NC(=O)CC3CCOCC3)nc2C)cc1S(=O)(=O)Nc1ccc(F)cc1F [Compound S-260] | > 10000 nM | > 10000 nM | < 100 nM | > 10000 nM | > 10000 nM | < 100 nM | EC50 (HCV2a): 100 to 1000 nM
COc1ncc(-c2sc(NC(=O)CC3CCOCC3)nc2C)cc1S(=O)(=O)Nc1ccc(O)cc1 [Compound S-261] | > 10000 nM | – | < 100 nM | 100 to 1000 nM | 100 to 1000 nM | < 100 nM | EC50 (HCV2a): 1 to 100 nM
COc1ncc(-c2sc(NC(=O)CC3CCOCC3)nc2C)cc1S(=O)(=O)N[C@H]1CC[C@@H](O)CC1 [Compound S-262] | – | – | < 100 nM | 100 to 1000 nM | > 10000 nM | < 100 nM | –
COc1ncc(-c2sc(NC(=O)CC3CCOCC3)nc2C)cc1S(=O)(=O)NC1CCCC(O)C1 (centres unmarked) [Compound S-263] | > 10000 nM | – | – | – | – | – | EC50 (HCV2a): 1 to 100 nM
COc1ncc(-c2sc(NC(=O)CC3CCOCC3)nc2C)cc1S(=O)(=O)Nc1cccc(C(=O)O)c1 [Compound S-265] | – | > 10000 nM | < 100 nM | 1000 to 10000 nM | > 10000 nM | < 100 nM | –
COc1ccc(-c2sc(NC(C)C3CCOCC3)nc2C)cc1S(=O)(=O)Nc1ccccc1Cl (centres unmarked) [Compound S-316] | – | – | – | – | – | – | EC50 (Coxsackie virus B3): 1 to 100 nM; EC50 (MERS coronavirus): 1 to 10 µM; EC50 (Enterovirus 68): 1 to 100 nM; EC50 (Enterovirus 71): 1 to 100 nM; EC50 (Dengue virus 2): 1000 to 10000 nM; EC50 (Poliovirus (WM-3)): 0.1 to 1 µM; EC50 [1]: > 10000 nM; EC50 (HRV; Table 5): 1 to 100 nM; EC50 (Influenza A virus H1N1): 1000 to 10000 nM; EC50 (EV71): 1 to 100 nM
COc1ccc(-c2sc(NC(C)C3CCOCC3)nc2C)cc1S(=O)(=O)NC1CCC(O)CC1 (centres unmarked) [Compound S-328] | – | – | – | – | – | – | EC50 (Coxsackie virus B3): 1 to 100 nM; EC50 (MERS coronavirus): > 10 µM; EC50 (Enterovirus 68): 1 to 100 nM; EC50 (Enterovirus 71): 1 to 100 nM; EC50 (Dengue virus 2): > 10000 nM; EC50 (Poliovirus (WM-3)): 0.001 to 0.1 µM; EC50 [1]: > 10000 nM; EC50 (HRV; Table 5): 1 to 100 nM; EC50 (Influenza A virus H1N1): > 10000 nM; EC50 (EV71): 1 to 100 nM
